Measured values as given in paper PMC7822065, “Discovery of indole-3-butyric acid derivatives as potent histone deacetylase inhibitors” (Journal of Enzyme Inhibition and Medicinal Chemistry, 2021).

Columns and labels:
HepG2 cells = assay: MTT antiproliferative assay, HepG2; details: Homo sapiens, HepG2, 48 h, read-out: HepG2 IC50
Protocol: (§1) The stock solutions of tested compounds were diluted with culture medium. […] Then, the cells were treated with compound sample at various concentrations for 48 h. Afterward, 20 MTT working solution (5 mg/ml) was added to each well and incubated for another 4 h. After incubation, the medium formed from MTT was extracted by adding DMSO (200 µl). The optical density (OD) at 490 nm and 630 nm were measured by Universal Microplate Spectrophotometer. […] The IC50 values were calculated with Origin 7.5 software (Originlab Corporation, Northampton, MA), and standard deviations of the IC50 values were obtained through at least 3 independent experiments.

[1] = test system: HDACs (HeLa nucleus extract containing a mixture of HDAC isoforms); assay: HDAC inhibitory assay with HeLa nucleus extract; details: at the concentration of 1 µM
U937 cells = assay: MTT antiproliferative assay, U937; details: Homo sapiens, U-937, 48 h, read-out: U937 IC50
Protocol: as §1

U266 cells = assay: MTT antiproliferative assay, U266; details: Homo sapiens, U-266, 48 h, read-out: U266 IC50
Protocol: as §1
To evaluate the antiproliferative activity of hydroxamic acid containing molecules, MTT assays were performed using U937, U266, and HepG2 cell lines.

| Compound | IC50 (HepG2 cells) [nM] | HDACs, percentage inhibition rate (PIR) [1] [%] | IC50 (U937 cells) [nM] | IC50 (U266 cells) [nM] | HDACs, percentage inhibition rate (PIR) ([1]; 1 µM) [%] |
| --- | --- | --- | --- | --- | --- |
| O=C(CCCc1c[nH]c2ccccc12)Nc1ccc(C(=O)NO)cc1 [Compound I1, 4-(4-(1H-indol-3-yl)butanamido)-N-hydroxybenzamide] | 8980 ± 160 | 53.81 ± 1.60 | 1020 ± 130 | 840 ± 90 | – |
| CCNNC(=O)c1ccc(NC(=O)CCCc2c[nH]c3ccccc23)cc1 [Compound I1e1, N-[4-(N′-Ethyl-hydrazinocarbonyl)-phenyl]-4-(1H-indol-3-yl)-butyramide] | – | 50.60 ± 2.02 | – | 15970 ± 140 | – |
| CCCNNC(=O)c1ccc(NC(=O)CCCc2c[nH]c3ccccc23)cc1 [Compound I1e2, 4-(1H-Indol-3-yl)-N-[4-(N′-propyl-hydrazinocarbonyl)-phenyl]-butyramide] | – | 61.34 ± 3.56 | – | 640 ± 20 | – |
| CCCCNNC(=O)c1ccc(NC(=O)CCCc2c[nH]c3ccccc23)cc1 [Compound I1e3, N-[4-(N′-Butyl-hydrazinocarbonyl)-phenyl]-4-(1H-indol-3-yl)-butyramide] | – | 30.47 ± 1.17 | – | 1060 ± 50 | – |
| CC(C)CNNC(=O)c1ccc(NC(=O)CCCc2c[nH]c3ccccc23)cc1 [Compound I1e4, 4-(1H-Indol-3-yl)-N-[4-(N′-isobutyl-hydrazinocarbonyl)-phenyl]-butyramide] | – | 7.16 ± 1.50 | – | 16000 ± 670 | – |
| O=C(CCCc1cn(Cc2ccccc2)c2ccccc12)Nc1ccc(C(=O)NO)cc1 [Compound I2, 4-(4-(1-benzyl-1H-indol-3-yl)butanamido)-N-hydroxybenzamide] | 3630 ± 260 | 78.94 ± 3.41 | 950 ± 40 | 480 ± 90 | – |
| CCCNNC(=O)c1ccc(NC(=O)CCCc2cn(Cc3ccccc3)c3ccccc23)cc1 [Compound I2e2, 4-(1-Benzyl-1H-indol-3-yl)-N-[4-(N′-propyl-hydrazinocarbonyl)-phenyl]-butyramide] | – | – | – | 1110 ± 80 | 57.46 ± 2.06 |
| CCCCNNC(=O)c1ccc(NC(=O)CCCc2cn(Cc3ccccc3)c3ccccc23)cc1 [Compound I2e3, 4-(1-Benzyl-1H-indol-3-yl)-N-[4-(N′-butyl-hydrazinocarbonyl)-phenyl]-butyramide] | – | 51.41 ± 2.78 | – | 1710 ± 70 | – |
| CCn1cc(CCCC(=O)Nc2ccc(C(=O)NO)cc2)c2ccccc21 [Compound I3, 4-(4-(1-Ethyl-1H-indol-3-yl)butanamido)-N-hydroxybenzamide] | 1920 ± 50 | 78.94 ± 2.34 | 940 ± 40 | 240 ± 30 | – |
| CCCNNC(=O)c1ccc(NC(=O)CCCc2cn(CC)c3ccccc23)cc1 [Compound I3e2, 4-(1-Ethyl-1H-indol-3-yl)-N-[4-(N′-propyl-hydrazinocarbonyl)-phenyl]-butyramide] | – | 36.51 ± 2.93 | – | 480 ± 100 | – |
| CCCCNNC(=O)c1ccc(NC(=O)CCCc2cn(CC)c3ccccc23)cc1 [Compound I3e3, N-[4-(N′-Butyl-hydrazinocarbonyl)-phenyl]-4-(1-ethyl-1H-indol-3-yl)-butyramide] | – | 31.94 ± 1.51 | – | 1450 ± 100 | – |
| O=C(CCCc1cn(Cc2ccc(C(F)(F)F)cc2)c2ccccc12)Nc1ccc(C(=O)NO)cc1 [Compound I4, 4-(4-(1-(4-Trifluoromethyl-benzyl)-1H-indol-3-yl)butanamido)-N-hydroxybenzamide] | 4450 ± 250 | 68.50 ± 1.22 | 970 ± 40 | 960 ± 80 | – |
| O=C(CCCc1cn(Cc2ccccc2C(F)(F)F)c2ccccc12)Nc1ccc(C(=O)NO)cc1 [Compound I5, 4-(4-(1-(2-Trifluoromethyl-benzyl)-1H-indol-3-yl)butanamido)-N-hydroxybenzamide] | 6170 ± 210 | 19.30 ± 1.60 | 4420 ± 180 | 880 ± 70 | – |
| O=C(CCCc1cn(Cc2ccc(F)c(F)c2)c2ccccc12)Nc1ccc(C(=O)NO)cc1 [Compound I6, 4-(4-(1-(3,4-Difluoro-benzyl)-1H-indol-3-yl)butanamido)-N-hydroxybenzamide] | 7720 ± 340 | 16.14 ± 1.07 | 1250 ± 210 | 820 ± 60 | – |
| O=C(CCCc1cn(Cc2cccc(F)c2)c2ccccc12)Nc1ccc(C(=O)NO)cc1 [Compound I7, 4-(4-(1-(3-Fluoro-benzyl)-1H-indol-3-yl)butanamido)-N-hydroxybenzamide] | 4870 ± 120 | 46.17 ± 2.94 | 950 ± 10 | 840 ± 60 | – |
| CCCNNC(=O)c1ccc(NC(=O)CCCc2cn(Cc3cccc(F)c3)c3ccccc23)cc1 [Compound I7e2, 4-[1-(3-Fluoro-benzyl)-1H-indol-3-yl]-N-[4-(N′-propyl-hydrazinocarbonyl)-phenyl]-butyramide] | – | 30.45 ± 3.38 | – | 1320 ± 80 | – |
| O=C(CCCc1cn(Cc2cccc(Br)c2)c2ccccc12)Nc1ccc(C(=O)NO)cc1 [Compound I8, 4-(4-(1-(3-Bromo-benzyl)-1H-indol-3-yl)butanamido)-N-hydroxybenzamide] | 6450 ± 280 | 15.87 ± 3.27 | 1940 ± 170 | 710 ± 60 | – |
| O=C(CCCc1cn(Cc2cccc(Cl)c2)c2ccccc12)Nc1ccc(C(=O)NO)cc1 [Compound I9, 4-(4-(1-(3-Chloro-benzyl)-1H-indol-3-yl)butanamido)-N-hydroxybenzamide] | 5670 ± 60 | 56.68 ± 2.42 | 1000 ± 150 | 650 ± 40 | – |
| O=C(CCCc1cn(Cc2c(F)cccc2F)c2ccccc12)Nc1ccc(C(=O)NO)cc1 [Compound I10, 4-(4-(1-(2,6-Difluoro-benzyl)-1H-indol-3-yl)butanamido)-N-hydroxybenzamide] | 3390 ± 250 | 79.10 ± 4.65 | 630 ± 70 | 160 ± 70 | – |
| CCCNNC(=O)c1ccc(NC(=O)CCCc2cn(Cc3c(F)cccc3F)c3ccccc23)cc1 [Compound I10e2, 4-[1-(2,6-Difluoro-benzyl)-1H-indol-3-yl]-N-[4-(N′-propyl-hydrazinocarbonyl)-phenyl]-butyramide] | – | 46.85 ± 2.06 | – | 740 ± 50 | – |
| O=C(CCCc1cn(Cc2cc(C(F)(F)F)cc(C(F)(F)F)c2)c2ccccc12)Nc1ccc(C(=O)NO)cc1 [Compound I11, 4-(4-(1-(3,5-Bis-trifluoromethyl-benzyl)-1H-indol-3-yl)butanamido)-N-hydroxybenzamide] | 4760 ± 610 | 52.24 ± 1.10 | 4580 ± 230 | 740 ± 50 | – |
| CCCCn1cc(CCCC(=O)Nc2ccc(C(=O)NO)cc2)c2ccccc21 [Compound I12, 4-(4-(1-Butyl-1H-indol-3-yl)butanamido)-N-hydroxybenzamide] | 5760 ± 650 | 62.70 ± 1.63 | 1010 ± 30 | 120 ± 20 | – |
| CCCCn1cc(CCCC(=O)Nc2ccc(C(=O)NNCCC)cc2)c2ccccc21 [Compound I12e2, 4-(1-Butyl-1H-indol-3-yl)-N-[4-(N′-propyl-hydrazinocarbonyl)-phenyl]-butyramide] | – | 39.73 ± 1.84 | – | 1280 ± 120 | – |
| CCCCNNC(=O)c1ccc(NC(=O)CCCc2cn(CCCC)c3ccccc23)cc1 [Compound I12e3, N-[4-(N′-Butyl-hydrazinocarbonyl)-phenyl]-4-(1-butyl-1H-indol-3-yl)-butyramide] | – | 42.76 ± 1.56 | – | 1440 ± 310 | – |
| CCCNNC(=O)c1ccc(NC(=O)CCCc2cn(C)c3ccccc23)cc1 [Compound I13e2, 4-(1-Methyl-1H-indol-3-yl)-N-[4-(N′-propyl-hydrazinocarbonyl)-phenyl]-butyramide] | – | 29.68 ± 2.06 | – | 710 ± 110 | – |
| CCCCNNC(=O)c1ccc(NC(=O)CCCc2cn(C)c3ccccc23)cc1 [Compound I13e3, N-[4-(N′-Butyl-hydrazinocarbonyl)-phenyl]-4-(1-methyl-1H-indol-3-yl)-butyramide] | – | 32.15 ± 1.03 | – | 1360 ± 60 | – |
